Data as given in patent US20110136762A1, “FUNGICIDAL PYRIDAZINES” (E.I. Du Pont de Nemours and Company, priority 2008, published 2011).
Marks after values point to notes of the source that are not given here.

How the values were obtained:
Type in all cases: in vivo
[1] = tested on: Puccinia recondita f. sp. tritici; test: Test B: wheat leaf rust, preventive spray on wheat seedlings, visual disease rating; settings: 40 ppm (marked *), 100 = 100% disease control, 0 = no disease control relative to controls; for pest or weed control at 40 ppm: 192 h
Summary of the method: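 Seedlings were sprayed to run-off at 200 ppm (500 g/ha), or at 40 ppm where marked *, then inoculated with spores the next day. Plants were held at saturated humidity at 20° C for 24 h and then in a growth chamber at 20° C for 7 days before visual disease rating.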

Septoria tritici = test: Test C: wheat leaf blotch, preventive spray on wheat seedlings, visual disease rating; settings: 40 ppm (marked *), 100 = 100% disease control, 0 = no disease control relative to controls; for pest or weed control at 40 ppm: Zymoseptoria tritici, 504 h
Summary of the method: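 Wheat seedlings were sprayed to run-off with test suspension at 200 ppm (500 g/ha), or at 40 ppm where marked *. They were inoculated with spores the next day and held in saturated atmosphere at 20° C for 48 h. After a further 19 days in a growth chamber at 20° C, disease was rated visually.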

Alternaria solani = test: Test E: tomato early blight, preventive spray on tomato seedlings, visual disease rating; settings: 40 ppm (marked *), 100 = 100% disease control, 0 = no disease control relative to controls; for pest or weed control at 40 ppm: Alternaria solani
Summary of the method: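 Tomato seedlings sprayed to run-off with test suspension at 200 ppm (equivalent to 500 g/ha), or 40 ppm where marked "*", as a preventive treatment before A. solani challenge. Disease then rated visually.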

Botrytis cinerea = test: Test F: tomato Botrytis, preventive spray on tomato seedlings, visual disease rating; settings: 40 ppm (marked *), 100 = 100% disease control, 0 = no disease control relative to controls; for pest or weed control at 40 ppm: Botrytis cinerea
Summary of the method: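 Preventive test: tomato seedlings sprayed to run-off at 200 ppm (500 g/ha) or, where marked *, 40 ppm, then inoculated next day with B. cinerea spores. Kept 48 h at saturated humidity and 20° C, then 3 days at 24° C. Disease assessed visually.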

Erysiphe graminis = test: Test A: wheat powdery mildew, preventive spray on wheat seedlings, visual disease rating; settings: 40 ppm (marked *), 100 = 100% disease control, 0 = no disease control relative to controls; for pest or weed control at 40 ppm: Blumeria graminis, 192 h
Summary of the method: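 Seedlings were sprayed to run-off with test suspension at 200 ppm (500 g/ha), or 40 ppm where marked. They were dust-inoculated with spores the next day and kept 8 days at 20 °C. Disease was then rated visually.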

Septoria nodorum = test: Test D: wheat glume blotch, preventive spray on wheat seedlings, visual disease rating; settings: 40 ppm (marked *), 100 = 100% disease control, 0 = no disease control relative to controls; for pest or weed control at 40 ppm: Parastagonospora nodorum
Summary of the method: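 Wheat seedlings sprayed to run-off with compound at 200 ppm (500 g/ha), or 40 ppm where marked, then inoculated with Septoria nodorum spores the next day. Held 48 h in saturated atmosphere at 20° C, then 7 days in a growth chamber at 20° C before visual disease rating.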

SMILES | Test B rating (disease control, wheat leaf rust) [1] | Test C rating (disease control, wheat leaf blotch) (Septoria tritici) | Test E rating (disease control, tomato early blight) (Alternaria solani) | Test F rating (disease control, tomato Botrytis) (Botrytis cinerea) | Test A rating (disease control, wheat powdery mildew) (Erysiphe graminis) | Test D rating (disease control, wheat glume blotch) (Septoria nodorum) | pest or weed control at 40 ppm [1] [%] | pest or weed control at 40 ppm (Septoria tritici) [%] | pest or weed control at 40 ppm (Alternaria solani) [%] | pest or weed control at 40 ppm (Botrytis cinerea) [%] | pest or weed control at 40 ppm (Erysiphe graminis) [%] | pest or weed control at 40 ppm (Septoria nodorum) [%]
COc1ccncc1-c1c(-c2ccccc2F)nnc(Cl)c1-c1c(F)cc(F)cc1F [Compound 40] | 100* % | 100* % | 93* % | 100* % | 73* % | 60* % | – | – | – | – | – | –
Cc1nnc(-c2ccccc2F)c(-c2cncc(F)c2)c1-c1c(F)cc(F)cc1F [Compound 41] | 100* % | 100* % | 98* % | 100* % | 97* % | 98* % | – | – | – | – | – | –
COc1ccncc1-c1c(-c2ccccc2F)nnc(C)c1-c1c(F)cc(F)cc1F [Compound 42] | 99* % | 100* % | 41* % | 100* % | 78* % | 0* % | – | – | – | – | – | –
COc1cc(OC)c(Cl)c(-c2c(-c3ccccc3F)nnc(Cl)c2-c2c(F)cc(F)cc2F)c1 [Compound 43] | 100* % | 97* % | 99* % | 100* % | 99* % | 100* % | – | – | – | – | – | –
COc1cncc(-c2c(-c3ccccc3F)nnc(Cl)c2-c2c(F)cc(F)cc2F)c1 [Compound 44, 3-chloro-6-(2-fluorophenyl)-5-(5-methoxy-3-pyridinyl)-4-(2,4,6-trifluorophenyl)pyridazine] | – | – | – | – | – | – | 99 | 99 | 100 | 100 | 100 | 100
COc1cc(OC)cc(-c2c(-c3ccccc3F)nnc(Cl)c2-c2c(F)cc(F)cc2F)c1 [Compound 45, 3-chloro-5-(3,5-dimethoxyphenyl)-6-(2-fluorophenyl)-4-(2,4,6-trifluorophenyl)pyridazine] | – | – | – | – | – | – | 100 | 99 | 100 | 100 | 100 | 100
COc1cncc(-c2c(-c3ccccc3F)nnc(C)c2-c2c(F)cc(F)cc2F)c1 [Compound 46] | 100* % | 99* % | 100* % | 100* % | 97* % | 0* % | – | – | – | – | – | –
